Columns and labels:
[1] = tested on: experimental animals; conditions: cited from earlier work
[2] = tested on: Lb. acidophilus; experiment: Survival of probiotic bacteria during the drying process; type: cell-based; conditions: acid used as the weak acid in the mix
Source text: The pH of the final product will dictate the type of weak acid to be utilised.

SMILES | Hazard to man or animals ([1]; at the level succinic acid occurs naturally in foods) | Amount tolerated by experimental animals ([1]; experimental animals) | Viability of probiotic bacteria during the drying process [2]
O=C(O)CCC(=O)O [succinic acid, butanedioic acid] | no evidence that it is hazardous | several | has not effect
O=C1O[C@H]([C@@H](O)CO)C(O)=C1O [Ascorbic acid] | – | – | has not effect
